The text below walks through data of US4647576A, “Trans-6-[2-(substitutedpyrrol-1-yl)alkyl]-pyran-2-one inhibitors of cholesterol synthesis” (Warner-Lambert Company, priority 1984, dated 1987).

The pIC50 is the negative decadic logarithm of the IC50, by convention in mol/L. A lower pIC50 goes with a large IC50.

pIC50: −log10 of the molar value.

Assay [1] deals with T1, HMG-CoA reductase (Rattus norvegicus, UniProt P51639).
T1 sequence (P51639 1-887): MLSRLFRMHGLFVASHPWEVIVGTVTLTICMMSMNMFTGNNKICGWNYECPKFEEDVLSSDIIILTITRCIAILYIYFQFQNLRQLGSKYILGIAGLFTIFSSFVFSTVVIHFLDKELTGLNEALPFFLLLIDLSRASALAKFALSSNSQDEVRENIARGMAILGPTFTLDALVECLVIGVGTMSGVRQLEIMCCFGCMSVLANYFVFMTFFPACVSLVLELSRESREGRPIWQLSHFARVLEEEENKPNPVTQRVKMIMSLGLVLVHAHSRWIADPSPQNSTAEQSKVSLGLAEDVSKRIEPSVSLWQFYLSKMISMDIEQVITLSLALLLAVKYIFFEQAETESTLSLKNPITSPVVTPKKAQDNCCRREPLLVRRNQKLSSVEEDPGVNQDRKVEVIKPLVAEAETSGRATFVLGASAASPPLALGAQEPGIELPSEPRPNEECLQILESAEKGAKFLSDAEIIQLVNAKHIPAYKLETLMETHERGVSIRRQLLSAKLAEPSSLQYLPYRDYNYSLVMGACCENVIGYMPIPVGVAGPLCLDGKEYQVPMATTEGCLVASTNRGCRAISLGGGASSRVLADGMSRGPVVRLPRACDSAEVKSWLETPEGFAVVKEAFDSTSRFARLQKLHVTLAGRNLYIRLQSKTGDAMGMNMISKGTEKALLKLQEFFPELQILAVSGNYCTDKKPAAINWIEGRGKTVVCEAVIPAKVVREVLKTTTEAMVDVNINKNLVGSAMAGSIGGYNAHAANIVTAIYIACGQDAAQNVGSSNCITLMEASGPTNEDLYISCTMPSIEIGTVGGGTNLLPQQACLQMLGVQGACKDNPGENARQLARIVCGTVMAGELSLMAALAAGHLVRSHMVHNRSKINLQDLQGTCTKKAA
The assay is described as follows: COR screen: conversion of 14C-HMG-CoA to 14C-mevalonate by purified HMG-CoA reductase. To be noted: purified enzyme preparation, footnote: adjusted for a standard IC50 value for compactin (internal standard). In kind it is biochemical. As for the experimental part: A second method (designated COR screen) employed the procedure detailed by T. Kita, et al., J. Clin. Invest., (1980), 66: 1094-1100. In this method, the amount of ^14 C-HMG-CoA converted to ^14 C-mevalonate in the presence of a purified enzyme preparation of HMG-CoA reductase was measured. The micromolar concentration of compound required for 50% inhibition of cholesterol synthesis was measured and recorded as an IC50 value.

The subject of assay [2] is sterol synthesis by rat liver homogenate. Description: CSI screen: inhibition of sterol synthesis (14C-acetate incorporation into nonsaponifiable lipid) by rat liver homogenate. In kind it is biochemical. To be noted: one-hour period, footnote: adjusted for a standard IC50 value for compactin (internal standard). As for the experimental part: The ability of compounds of the present invention to inhibit the biosynthesis of cholesterol was measured by two methods. A first method (designated CSI screen) utilized the procedure described by R. E. Dugan et al., Archiv. Biochem. Biophys., (1972), 152, 21-27. In this method, the level of HMG-CoA enzyme activity in standard laboratory rats is increased by feeding the rats a chow diet containing 5% cholestyramine for four days, after which the rats are sacrificed.
The rat livers are homogenized, and the incorporation of cholesterol-^14 C-acetate into nonsaponifiable lipid by the rat liver homogenate is measured. The micromolar concentration of compound required for 50% inhibition of sterol synthesis over a one-hour period is measured, and expressed as an IC50 value.

As to `CC(C)c1c(Cl)c(Cl)c(-c2ccc(F)cc2)n1CC[C@H]1C[C@H](O)CC(=O)O1` (relative stereo) [Compound 2, 6-[2-[2-(4-fluorophenyl)-3,4-dichloro-5-(1-methylethyl)-1H-pyrrol-1-yl]ethyl]tetrahydro-4-hydroxy-trans-2H-pyran-2-one], the negative-log IC50 (pIC50) in assay [1] is 7.62; in assay [2], 6.80.
The matching figures for `COC(=O)c1c(C(=O)OC)c(C(C)C)n(CC[C@@H]2C[C@@H](O)CC(=O)O2)c1-c1ccc(F)cc1` (relative stereo) [Compound 4, Dimethyl-2-(4-Fluorophenyl)-5-(1-methylethyl)-1-[2-(tetrahydro-4-hydroxy-6-oxo-2H-pyran-2-yl)ethyl]-1H-pyrrole-3,4-dicarboxylate]: 7.10 and 6.96.
As to `CC[C@H](C)C(=O)O[C@H]1CCC=C2C=C[C@H](C)[C@H](CC[C@@H]3C[C@@H](O)CC(=O)O3)[C@H]21` [Compound 5, Compactin, reference compound], the pIC50 in assay [1] is 7.55; in assay [2], 7.59.
The matching figures for `CC(C)c1c(Br)c(Br)c(-c2ccc(F)cc2)n1CC[C@H]1C[C@H](O)CC(=O)O1` (relative stereo) [Compound 3, 6-[2-[2-(4-fluorophenyl)-3,4 dibromo-5-(1-methylethyl)-1H-pyrrol-1-yl]ethyl]tetrahydro-4-hydroxy-trans-2H-pyran-2-one]: 9.00 and 6.66.
The corresponding values for `CC(C)c1ccc(-c2ccc(F)cc2)n1CC[C@H]1C[C@H](O)CC(=O)O1` (relative stereo) [Compound 1, trans-6-[2-[2-(4-fluorophenyl)-5-(1-methylethyl)-1H-pyrrol-1-yl]ethyl]tetrahydro-4-hydroxy-2H-pyran-2-one] are 6.55 and 6.32.
